According to patent US20240254103A9, “NOVEL PYRIMIDINE DERIVATIVE, AND COMPOSITION FOR PREVENTING OR TREATING NEURODEGENERATIVE DISEASES AND CANCER, COMPRISING SAME” (WHAN IN PHARMACEUTICAL CO., LTD., priority 2020, published 2024):

Target: T1, wild-type LRRK2 (Homo sapiens, UniProt Q5S007)
T1 construct: DNA tag for qPCR detection (not a peptide; the protein part that carries it is not described); made in house; host or cells: HEK 293 cells (the same paragraph also describes T7 phage grown in E. coli BL21)
Assay: Inhibitory activity against LRRK2: competition binding to ligand-affinity beads, DNA-tagged kinase quantitated by qPCR
Conditions: % of ctrl; for remaining binding at 0.01 µM: 10 nM compound, read-out: LRRK2(WT) Remaining kinase activity(%) at 10 nM; for remaining binding at 0.05 µM: 50 nM compound, read-out: LRRK2(WT) Remaining kinase activity(%) at 50 nM
Method: Representative compounds synthesized in Example 1 were assayed for inhibitory activity against wild-type LRRK2 and mutant LRRK2 (G2019S), and the results are summarized in Tables 2 and 3. In brief, a T7 phase strain carrying the wild-type kinase consisting of amino acid residues from H970 to E2527 of human-derived LRRK2 (Accession no. NP_940980.3) or a T7 phase strain carrying the G2019S mutation kinase was infected into E. coli strain BL21 which was then grown until log phase. After infection with T7 phases (multiplicity of infection=0.4), the cells were cultured at 32° C. for 90-150 minutes while shaking. Then, E. coli lysates were centrifuged (6,000×g) and the supernatant was filtered through a 0.2-μm filter. The kinases were produced in HEK 293 cells. In this regard, DNA was tagged to obtain DNA-tagged kinases for qPCR detection. For use in analyzing the kinases, affinity resins were prepared by treating streptavidin-coated magnetic beads with biotinylated small molecule ligands at room temperature for 30 minutes. Then, the liganded beads were blocked with an excess of biotin and washed with a blocking buffer (SeaBlock (Pierce), 1% BSA, 0.05% Tween 20, 1 mM DTT) to remove unbound ligands and thus to reduce the binding of non-specific phages. […] After one hour of incubation, the affinity beads were washed with a wash buffer (1×PBS, 0.05% Tween 20), resuspended in an elution buffer (1×PBS, 0.05% Tween 20, 0.5 μM non-biotinylated affinity ligand), and incubated at room temperature for 30 minutes while shaking. Afterwards, concentrations of wild-type LRRK2 and mutant LRRK2 (G2019S) in the eluted samples were quantitated by qPCR. Activity values are expressed as percentages relative to the control (% of ctrl). The compounds used in the activity assay were prepared into 40× stocks in 100% DMSO. The stocks were directly diluted during analysis procedures.
Table 2 includes inhibitory activities of the representative compounds of the present disclosure at 100 nM against wild-type LRRK2 and mutant LRRK2 (G2019S) while Table 3 includes inhibitory activities of the representative compounds at 10 nM and 50 nM against wild-type LRRK2. (+++ less than 10%; ++ less than 30%; + less than 50%; −50% or higher)

T1 sequence (Q5S007 970-2527): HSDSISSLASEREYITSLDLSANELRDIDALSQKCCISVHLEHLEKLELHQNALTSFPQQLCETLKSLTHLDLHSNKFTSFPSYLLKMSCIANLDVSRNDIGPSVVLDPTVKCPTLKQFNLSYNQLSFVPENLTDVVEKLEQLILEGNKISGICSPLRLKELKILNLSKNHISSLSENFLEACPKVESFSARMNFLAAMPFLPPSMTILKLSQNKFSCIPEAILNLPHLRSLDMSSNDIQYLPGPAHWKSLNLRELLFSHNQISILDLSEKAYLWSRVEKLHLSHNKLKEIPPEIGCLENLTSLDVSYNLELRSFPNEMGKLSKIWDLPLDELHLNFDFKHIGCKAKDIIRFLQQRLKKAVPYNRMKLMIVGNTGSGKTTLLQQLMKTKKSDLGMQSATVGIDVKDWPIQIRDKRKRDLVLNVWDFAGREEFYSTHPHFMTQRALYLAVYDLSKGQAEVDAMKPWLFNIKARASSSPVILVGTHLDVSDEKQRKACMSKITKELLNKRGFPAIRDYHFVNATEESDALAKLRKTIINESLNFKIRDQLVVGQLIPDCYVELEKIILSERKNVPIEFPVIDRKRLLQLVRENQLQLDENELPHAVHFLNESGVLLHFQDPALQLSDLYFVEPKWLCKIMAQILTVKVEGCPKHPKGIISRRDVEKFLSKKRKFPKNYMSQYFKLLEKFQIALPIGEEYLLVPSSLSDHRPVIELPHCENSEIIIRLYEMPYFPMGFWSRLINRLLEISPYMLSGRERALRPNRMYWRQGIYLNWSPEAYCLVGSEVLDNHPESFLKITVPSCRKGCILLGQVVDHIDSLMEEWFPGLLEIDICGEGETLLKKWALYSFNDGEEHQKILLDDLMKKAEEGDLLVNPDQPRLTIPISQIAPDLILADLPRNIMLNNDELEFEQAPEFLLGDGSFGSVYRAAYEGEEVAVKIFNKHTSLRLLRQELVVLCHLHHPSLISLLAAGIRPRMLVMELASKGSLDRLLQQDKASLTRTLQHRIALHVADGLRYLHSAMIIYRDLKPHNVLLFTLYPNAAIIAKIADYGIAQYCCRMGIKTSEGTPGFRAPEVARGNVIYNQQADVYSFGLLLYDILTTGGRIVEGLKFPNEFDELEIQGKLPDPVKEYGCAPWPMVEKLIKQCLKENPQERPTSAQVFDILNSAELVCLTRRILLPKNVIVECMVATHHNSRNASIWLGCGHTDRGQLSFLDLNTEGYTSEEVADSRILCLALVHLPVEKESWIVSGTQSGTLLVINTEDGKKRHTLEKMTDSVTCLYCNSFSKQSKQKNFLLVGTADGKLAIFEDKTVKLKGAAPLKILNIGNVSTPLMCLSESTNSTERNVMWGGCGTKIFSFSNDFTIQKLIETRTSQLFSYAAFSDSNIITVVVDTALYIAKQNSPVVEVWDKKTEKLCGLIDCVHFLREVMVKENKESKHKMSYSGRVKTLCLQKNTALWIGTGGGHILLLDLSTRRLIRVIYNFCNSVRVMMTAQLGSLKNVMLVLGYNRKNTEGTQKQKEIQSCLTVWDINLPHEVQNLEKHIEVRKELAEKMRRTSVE

remaining binding at 0.01 µM [%]	remaining binding at 0.05 µM [%]	SMILES
≥ 50	< 30	COCCNC(=O)c1ccc(Nc2ncc(Cl)c(-c3cnn(C(C)C)c3)n2)c(OC)c1 [Compound 140, 4-((5-chloro-4-(1-isopropyl-1H-pyrazol-4-yl)pyrimidin-2-yl)amino)-3-methoxy-N-(2-methoxyethyl)benzamide]
≥ 50	< 30	COc1cc(C(=O)N(C)CCO)ccc1Nc1ncc(Cl)c(-c2cnn(C(C)C)c2)n1 [Compound 141, 4-((5-chloro-4-(1-isopropyl-1H-pyrazol-4-yl)pyrimidin-2-yl)amino)-N-(2-hydroxyethyl)-3-methoxy-N-methylbenzamide]
≥ 50	< 30	COc1cc(C(=O)NCc2cccc(O)c2)ccc1Nc1ncc(Cl)c(-c2cnn(C(C)C)c2)n1 [Compound 152, 4-((5-chloro-4-(1-isopropyl-1H-pyrazol-4-yl)pyrimidin-2-yl)amino)-N-(3-hydroxybenzyl)-3-methoxybenzamide]
≥ 50	< 30	COc1ccccc1CNC(=O)c1ccc(Nc2ncc(Cl)c(-c3cnn(C(C)C)c3)n2)c(OC)c1 [Compound 154, 4-((5-chloro-4-(1-isopropyl-1H-pyrazol-4-yl)pyrimidin-2-yl)amino)-3-methoxy-N-(2-methoxybenzyl)benzamide]
≥ 50	< 50	COc1cc(C(=O)NCc2ccc(Cl)nc2)ccc1Nc1ncc(Cl)c(-c2cnn(C(C)C)c2)n1 [Compound 168, 4-((5-chloro-4-(1-isopropyl-1H-pyrazol-4-yl)pyrimidin-2-yl)amino)-N-((6-chloropyridin-3-yl)methyl)-3-methoxybenzamide]
≥ 50	< 50	CCOC(=O)CCNC(=O)c1ccc(Nc2ncc(Cl)c(-c3cnn(C(C)C)c3)n2)c(OC)c1 [Compound 176, ethyl 3-(4-((5-chloro-4-(1-isopropyl-1H-pyrazol-4-yl)pyrimidin-2-yl)amino)-3-methoxybenzamido)propanoate]
≥ 50	< 30	COc1cc(C(=O)NCc2ccc(N)cc2)ccc1Nc1ncc(Cl)c(-c2cnn(C(C)C)c2)n1 [Compound 183, N-(4-aminobenzyl)-4-((5-chloro-4-(1-isopropyl-1H-pyrazol-4-yl)pyrimidin-2-yl)amino)-3-methoxybenzamide]
≥ 50	< 30	COc1cc(C(=O)NCCS(C)(=O)=O)ccc1Nc1ncc(Cl)c(-c2cnn(C(C)C)c2)n1 [Compound 192, 4-((5-chloro-4-(1-isopropyl-1H-pyrazol-4-yl)pyrimidin-2-yl)amino)-3-methoxy-N-(2-(methylsulfonyl)ethyl)benzamide]
≥ 50	< 50	COc1cc(C(=O)NCCCn2ccnc2)ccc1Nc1ncc(Cl)c(-c2cnn(C(C)C)c2)n1 [Compound 197, N-(3-(1H-imidazol-1-yl)propyl)-4-((5-chloro-4-(1-isopropyl-1H-pyrazol-4-yl)pyrimidin-2-yl)amino)-3-methoxybenzamide]
≥ 50	< 50	COc1cc(C(=O)NCC(OC)OC)ccc1Nc1ncc(Cl)c(-c2cnn(C(C)C)c2)n1 [Compound 198, 4-((5-chloro-4-(1-isopropyl-1H-pyrazol-4-yl)pyrimidin-2-yl)amino)-N-(2,2-dimethoxyethyl)-3-methoxybenzamide]
≥ 50	< 50	CCN(C)C(=O)c1ccc(Nc2ncc(Cl)c(-c3cnn(C(C)C)c3)n2)c(OC)c1 [Compound 202, 4-((5-chloro-4-(1-isopropyl-1H-pyrazol-4-yl)pyrimidin-2-yl)amino)-N-ethyl-3-methoxy-N-methylbenzamide]
≥ 50	< 50	COc1ccc(CNC(=O)c2ccc(Nc3ncc(Cl)c(-c4cnn(C(C)C)c4)n3)c(OC)c2)cc1 [Compound 203, 4-((5-chloro-4-(1-isopropyl-1H-pyrazol-4-yl)pyrimidin-2-yl)amino)-3-methoxy-N-(4-methoxybenzyl)benzamide]
≥ 50	< 50	COc1cc(C(=O)Nc2cc(C)c(OC)c(C)c2)ccc1Nc1ncc(Cl)c(-c2cnn(C(C)C)c2)n1 [Compound 204, 4-((5-chloro-4-(1-isopropyl-1H-pyrazol-4-yl)pyrimidin-2-yl)amino)-3-methoxy-N-(4-methoxy-3,5-dimethylphenyl)benzamide]
≥ 50	< 50	COc1cc(C(=O)NCc2cccc(N)c2)ccc1Nc1ncc(Cl)c(-c2cnn(C(C)C)c2)n1 [Compound 205, N-(3-aminobenzyl)-4-((5-chloro-4-(1-isopropyl-1H-pyrazol-4-yl)pyrimidin-2-yl)amino)-3-methoxybenzamide]

Continued, compound first:

SMILES	remaining binding at 0.01 µM [%]	remaining binding at 0.05 µM [%]
COc1cc(C(=O)Nc2ccc(Cl)cc2)ccc1Nc1ncc(Cl)c(-c2cnn(C(C)C)c2)n1 [Compound 151, 4-((5-chloro-4-(1-isopropyl-1H-pyrazol-4-yl)pyrimidin-2-yl)amino)-N-(4-chlorophenyl)-3-methoxybenzamide]	≥ 50	< 50
COc1cc(C(=O)NC2CC(C)(C)NC(C)(C)C2)ccc1Nc1ncc(Cl)c(-c2cnn(C(C)C)c2)n1 [Compound 166, 4-((5-chloro-4-(1-isopropyl-1H-pyrazol-4-yl)pyrimidin-2-yl)amino)-3-methoxy-N-(2,2,6,6-tetramethylpiperidin-4-yl)benzamide]	≥ 50	< 30
COc1cc(C(=O)NN2C(C)CCCC2C)ccc1Nc1ncc(Cl)c(-c2cnn(C(C)C)c2)n1 (stereo not drawn) [Compound 167, 4-((5-chloro-4-(1-isopropyl-1H-pyrazol-4-yl)pyrimidin-2-yl)amino)-N-(2,6-dimethylpiperidin-1-yl)-3-methoxybenzamide]	≥ 50	< 30
COc1cc(C(=O)NC(C)c2ccccc2)ccc1Nc1ncc(Cl)c(-c2cnn(C(C)C)c2)n1 (stereo not drawn) [Compound 179, 4-((5-chloro-4-(1-isopropyl-1H-pyrazol-4-yl)pyrimidin-2-yl)amino)-3-methoxy-N-(1-phenylethyl)benzamide]	≥ 50	< 50
CCC(NC(=O)c1ccc(Nc2ncc(Cl)c(-c3cnn(C(C)C)c3)n2)c(OC)c1)c1ccccc1 (stereo not drawn) [Compound 182, 4-((5-chloro-4-(1-isopropyl-1H-pyrazol-4-yl)pyrimidin-2-yl)amino)-3-methoxy-N-(1-phenylpropyl)benzamide]	≥ 50	< 50
COc1cc(C(=O)NCc2ccc(S(N)(=O)=O)cc2)ccc1Nc1ncc(Cl)c(-c2cnn(C(C)C)c2)n1 [Compound 189, 4-((5-chloro-4-(1-isopropyl-1H-pyrazol-4-yl)pyrimidin-2-yl)amino)-3-methoxy-N-(4-sulfamoylbenzyl)benzamide]	≥ 50	< 50
COc1cc(C(=O)Nc2cccc(NS(C)(=O)=O)c2)ccc1Nc1ncc(Cl)c(-c2cnn(C(C)C)c2)n1 [Compound 190, 4-((5-chloro-4-(1-isopropyl-1H-pyrazol-4-yl)pyrimidin-2-yl)amino)-3-methoxy-N-(3-(methylsulfonamido)phenyl)benzamide]	≥ 50	< 50
COc1cc(C(=O)Nc2cccc(S(N)(=O)=O)c2)ccc1Nc1ncc(Cl)c(-c2cnn(C(C)C)c2)n1 [Compound 191, 4-((5-chloro-4-(1-isopropyl-1H-pyrazol-4-yl)pyrimidin-2-yl)amino)-3-methoxy-N-(3-sulfamoylphenyl)benzamide]	≥ 50	< 30
COC(=O)[C@@H]1CCCN1C(=O)c1ccc(Nc2ncc(Cl)c(-c3cnn(C(C)C)c3)n2)c(OC)c1 [Compound 200, methyl (4-((5-chloro-4-(1-isopropyl-1H-pyrazol-4-yl)pyrimidin-2-yl)amino)-3-methoxybenzoyl)-L-prolinate]	≥ 50	< 50
CCN(C)C1CCN(C(=O)c2ccc(Nc3ncc(Cl)c(-c4cnn(C(C)C)c4)n3)c(OC)c2)CC1 [Compound 210, (4-((5-chloro-4-(1-isopropyl-1H-pyrazol-4-yl)pyrimidin-2-yl)amino)-3-methoxyphenyl)(4-(ethyl(methyl)amino)piperidin-1-yl)methanone]	< 50	< 10
